{"source": "paper PMC8219695", "about": "(Nature Communications, 2021)", "key": {"[1]": {"biological_target": "T1, mDOR (Mus musculus, UniProt P32300)", "T1 construct": "expressed in transfected cells", "T1 sequence (P32300 whole entry)": "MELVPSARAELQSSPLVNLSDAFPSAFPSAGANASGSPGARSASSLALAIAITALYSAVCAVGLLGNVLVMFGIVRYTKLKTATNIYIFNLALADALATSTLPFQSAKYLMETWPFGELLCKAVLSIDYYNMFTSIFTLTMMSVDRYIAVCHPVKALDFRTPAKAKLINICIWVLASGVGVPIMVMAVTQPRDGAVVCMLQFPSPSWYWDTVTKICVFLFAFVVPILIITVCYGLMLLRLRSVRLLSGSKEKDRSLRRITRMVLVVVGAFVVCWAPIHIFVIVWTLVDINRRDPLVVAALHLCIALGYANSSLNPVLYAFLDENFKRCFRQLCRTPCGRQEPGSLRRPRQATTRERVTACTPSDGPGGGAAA", "assay": "CAMYEL BRET cAMP agonist assay at mDOR", "type": "cell-based", "conditions": "for Agonist activity of 7OH analogs at mDOR: single replicate values, Supplementary Figure 7B"}, "[2]": {"biological_target": "hDOR (Homo sapiens, UniProt P41143)", "sequence (P41143 whole entry)": "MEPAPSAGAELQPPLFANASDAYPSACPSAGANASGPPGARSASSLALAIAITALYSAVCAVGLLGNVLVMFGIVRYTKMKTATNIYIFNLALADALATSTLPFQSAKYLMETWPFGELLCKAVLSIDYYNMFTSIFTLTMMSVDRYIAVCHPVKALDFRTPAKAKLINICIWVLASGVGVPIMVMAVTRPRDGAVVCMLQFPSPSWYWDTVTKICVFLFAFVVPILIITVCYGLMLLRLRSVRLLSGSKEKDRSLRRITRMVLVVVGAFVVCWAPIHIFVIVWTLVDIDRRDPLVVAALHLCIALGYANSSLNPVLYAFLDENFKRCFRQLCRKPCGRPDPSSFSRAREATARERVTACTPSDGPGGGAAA", "assay": "CAMYEL BRET cAMP agonist assay at hDOR", "type": "cell-based", "conditions": "for Agonist activity of 7OH analogs at hDOR: single replicate values, Supplementary Figure 7A"}, "[3]": {"biological_target": "T2, rKOR (Rattus norvegicus, UniProt P34975)", "T2 construct": "expressed in transfected cells", "T2 sequence (P34975 whole entry)": "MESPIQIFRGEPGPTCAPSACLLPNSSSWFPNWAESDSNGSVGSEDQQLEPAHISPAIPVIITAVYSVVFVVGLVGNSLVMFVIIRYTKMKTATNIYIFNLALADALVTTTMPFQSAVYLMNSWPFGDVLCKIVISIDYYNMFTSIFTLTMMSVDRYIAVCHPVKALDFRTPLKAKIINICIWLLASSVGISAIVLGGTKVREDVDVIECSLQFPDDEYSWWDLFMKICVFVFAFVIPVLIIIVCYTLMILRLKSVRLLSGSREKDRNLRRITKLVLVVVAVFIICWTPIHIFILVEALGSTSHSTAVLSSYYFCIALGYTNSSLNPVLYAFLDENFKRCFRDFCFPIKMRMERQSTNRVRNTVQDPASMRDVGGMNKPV", "assay": "CAMYEL BRET cAMP agonist assay at rKOR", "type": "cell-based", "conditions": "individual replicates, Supplementary Figure 8B source data"}, "[4]": {"biological_target": "hKOR (Homo sapiens, UniProt P41145)", "sequence (P41145 whole entry)": "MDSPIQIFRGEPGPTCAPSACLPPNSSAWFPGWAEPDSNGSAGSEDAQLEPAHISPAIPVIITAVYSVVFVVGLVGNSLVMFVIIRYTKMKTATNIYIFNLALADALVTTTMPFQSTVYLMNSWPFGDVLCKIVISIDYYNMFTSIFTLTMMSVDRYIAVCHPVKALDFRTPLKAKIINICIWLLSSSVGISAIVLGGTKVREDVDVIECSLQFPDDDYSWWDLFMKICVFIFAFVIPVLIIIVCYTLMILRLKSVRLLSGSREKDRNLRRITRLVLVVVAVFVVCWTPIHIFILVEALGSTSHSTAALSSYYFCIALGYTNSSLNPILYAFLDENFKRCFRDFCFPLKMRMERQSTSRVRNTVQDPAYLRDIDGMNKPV", "assay": "CAMYEL BRET cAMP agonist assay at hKOR", "type": "cell-based", "conditions": "individual replicates, Supplementary Figure 8A source data"}, "[5]": {"tested_on": "CD1 mice", "assay": "Tail-flick antinociception in CD1 mice", "type": "in vivo, mouse", "conditions": "5 or 25 mg/kg s.c., CD1 mice, time course"}}, "note": "Several values for one entry are separate records, joined by “and”; a condition that tells them apart may be missing. Identical values can stand only once.", "data": [{"smiles": "CC[C@@H]1CN2CC[C@@]3(O)C(=Nc4cc(Cl)cc(OC)c43)[C@@H]2C[C@@H]1/C(=C\\OC)C(=O)OC", "note": "[11-Cl-7OH (23), 11-Cl-7OH]", "values": [{"measurement": "Agonist activity of 7OH analogs at mDOR", "setting": "[1]; Log[drug] (M) -6", "value": "24.5815 and 25.9676 and 37.4358 and 15.5242 and 17.7522 and 18.5933 and 15.1392 and 2.291 and 7.306"}, {"measurement": "Agonist activity of 7OH analogs at mDOR", "setting": "[1]; Log[drug] (M) -7", "value": "31.8669 and 29.4684 and 27.3279 and 35.1303 and 15.7738 and 14.2288 and -2.321 and 1.192 and 1.129"}, {"measurement": "Agonist activity of 7OH analogs at mDOR", "setting": "[1]; Log[drug] (M) -8", "value": "24.8631 and 32.1589 and 37.1926 and 12.9562 and 15.2093 and 7.166 and 10.5442 and -9.446 and 11.0136"}, {"measurement": "Agonist activity of 7OH analogs at mDOR", "setting": "[1]; Log[drug] (M) -9", "value": "33.463 and 29.5442 and 24.9953 and 13.5309 and 13.5578 and 8.893 and 29.4233"}, {"measurement": "Agonist activity of 7OH analogs at mDOR", "setting": "[1]; Log[drug] (M) -10", "value": "24.7821 and 18.2952 and 15.7891 and -5.277 and 4.222 and 6.7221 and 13.4439 and 1.454 and 8.443"}, {"measurement": "Agonist activity of 7OH analogs at mDOR", "setting": "[1]; Log[drug] (M) -11", "value": "28.0105 and 19.9828 and 19.4476 and 11.3847 and -1.66 and -5.157 and 5.226 and 0.03212 and 8.89"}, {"measurement": "Agonist activity of 7OH analogs at mDOR", "setting": "[1]; Log[drug] (M) -13", "value": "-1.931 and 4.676 and 0.1543 and -4.31 and 4.156 and 0.5113 and 7.987 and 3.883"}, {"measurement": "Emax", "setting": "[1]; mDOR cAMP BRET, positive control DPDPE", "value": "very low efficacy"}, {"measurement": "Agonist activity of 7OH analogs at hDOR", "setting": "[2]; Log[drug] (M) -5", "value": "17.1397 and 15.6735 and 17.1747 and 8.18 and -3.544 and 1.305 and 21.6642 and 15.0671 and 20.6929"}, {"measurement": "Agonist activity of 7OH analogs at hDOR", "setting": "[2]; Log[drug] (M) -6", "value": "30.6083 and 25.9231 and 32.3513 and 1.677 and 12.7082 and 9.625 and 17.2797 and 6.922 and 2.636"}, {"measurement": "Agonist activity of 7OH analogs at hDOR", "setting": "[2]; Log[drug] (M) -7", "value": "15.9329 and 22.4846 and 15.3548 and 1.086 and 2.267 and 6.255 and -1.22 and -1.151 and 2.37"}, {"measurement": "Agonist activity of 7OH analogs at hDOR", "setting": "[2]; Log[drug] (M) -8", "value": "13.6904 and 16.1168 and 10.9974 and 2.935 and -7.546 and 4.612 and 5.7671 and 0.4715 and 17.0267"}, {"measurement": "Agonist activity of 7OH analogs at hDOR", "setting": "[2]; Log[drug] (M) -9", "value": "23.852 and 14.4843 and 22.6626 and 18.4578 and 15.1232 and 4.553 and 18.1791 and 11.0147 and 18.7534"}, {"measurement": "Agonist activity of 7OH analogs at hDOR", "setting": "[2]; Log[drug] (M) -10", "value": "5.724 and 19.2021 and 4.266 and 3.553 and -1.827 and 11.1585 and 2.694 and 3.131 and 7.14"}, {"measurement": "Agonist activity of 7OH analogs at hDOR", "setting": "[2]; Log[drug] (M) -11", "value": "7.339 and 12.4107 and 20.099 and 7.6883 and 4.754 and 8.248 and 8.188 and 1.326 and 2.427"}, {"measurement": "Agonist activity of 7OH analogs at hDOR", "setting": "[2]; Log[drug] (M) -13", "value": "-6.485 and 2.218 and 4.267 and 9.369 and -0.6447 and 11.9855 and 0.02092 and 7.539 and 4.083"}, {"measurement": "Emax", "setting": "[2]; hDOR cAMP BRET, positive control DPDPE", "value": "very low efficacy"}, {"measurement": "Agonist activity of 7OH analogs at rKOR", "setting": "[3]; Log [drug](M) -5", "value": "7.778 and 10.9917 and 16.9019 and -6.188 and -1.8256 and 8.442 and 6.4374 and 16.0399 and 7.566"}, {"measurement": "Agonist activity of 7OH analogs at rKOR", "setting": "[3]; Log [drug](M) -6", "value": "8.066 and 4.412 and -3.244 and 6.747 and -4.426 and -2.321 and 10.6533 and 7.813 and 3.403"}, {"measurement": "Agonist activity of 7OH analogs at rKOR", "setting": "[3]; Log [drug](M) -7", "value": "11.5045 and -0.8261 and -10.6783 and 7.768 and -4.174 and 5.42 and 2.7074 and 2.952 and 8.478"}, {"measurement": "Agonist activity of 7OH analogs at rKOR", "setting": "[3]; Log [drug](M) -8", "value": "0.508 and -0.7332 and 4.656 and 8.713 and 2.1745 and 4.589 and 10.047 and 0.1108 and 9.912"}, {"measurement": "Agonist activity of 7OH analogs at rKOR", "setting": "[3]; Log [drug](M) -9", "value": "6.738 and 3.9698 and 11.9053 and 20.8557 and 20.3344 and 22.4492 and 3.132 and -0.673 and 0.03935"}, {"measurement": "Agonist activity of 7OH analogs at rKOR", "setting": "[3]; Log [drug](M) -10", "value": "7.8399 and 7.154 and 27.1145 and 5.225 and 8.778 and 7.65 and 0.6993 and -2.781 and 2.082"}, {"measurement": "Agonist activity of 7OH analogs at rKOR", "setting": "[3]; Log [drug](M) -11", "value": "20.1355 and 7.2112 and 5.419 and 15.9158 and 14.9773 and 3.289 and 5.031 and 2.5469 and 3.562"}, {"measurement": "Agonist activity of 7OH analogs at rKOR", "setting": "[3]; Log [drug](M) -13", "value": "2.6438 and 19.3085 and 15.1998 and 15.6888 and 12.292 and 1.7 and 4.489 and 13.3107 and 4.029"}, {"measurement": "Agonist activity of 7OH analogs at hKOR", "setting": "[4]; Log [drug](M) -5", "value": "9.026 and -5.895 and 4.248 and 11.9704 and 8.484 and 2.501 and -3.893 and 6.434 and -2.541"}, {"measurement": "Agonist activity of 7OH analogs at hKOR", "setting": "[4]; Log [drug](M) -6", "value": "-2.414 and -2.835 and -8.98 and 12.2163 and 1.484 and -5.782 and -0.574 and -6.895 and -9.704"}, {"measurement": "Agonist activity of 7OH analogs at hKOR", "setting": "[4]; Log [drug](M) -7", "value": "-11.1771 and -3.626 and -0.5883 and -1.763 and -7.04 and -2.623 and -4.522 and -13.931 and 0.01935"}, {"measurement": "Agonist activity of 7OH analogs at hKOR", "setting": "[4]; Log [drug](M) -8", "value": "2.99 and -4.136 and 1.141 and -3.765 and -7.282 and -9.586 and -2.533 and -2.303 and 3.7063"}, {"measurement": "Agonist activity of 7OH analogs at hKOR", "setting": "[4]; Log [drug](M) -9", "value": "-6.592 and -11.4451 and 3.708 and 3.417 and -6.737 and -11.3529 and 17.5943 and 11.6069 and 9.781"}, {"measurement": "Agonist activity of 7OH analogs at hKOR", "setting": "[4]; Log [drug](M) -10", "value": "-2.387 and -3.9069 and 3.049 and -10.4557 and -1.189 and 2.17 and 4.733 and 0.5961 and 8.633"}, {"measurement": "Agonist activity of 7OH analogs at hKOR", "setting": "[4]; Log [drug](M) -11", "value": "8.282 and -7.987 and 6.107 and 1.524 and -1.1871 and -6.8877 and 2.73 and 5.876 and 10.03"}, {"measurement": "Agonist activity of 7OH analogs at hKOR", "setting": "[4]; Log [drug](M) -13", "value": "4.46 and -4.721 and 0.2615 and 1.311 and -2.987 and 1.677 and 6.874 and 5.681 and 9.762"}, {"measurement": "analgesic effect in tail-flick", "setting": "[5]", "value": "no analgesic effect"}]}]}
